In US20230339835A1, “2,3,5-TRIMETHYL-6-NONYLCYCLOHEXA-2,5-DIENE-1,4-DIONE FOR SUPPRESSING AND TREATING ALPHA-SYNUCLEINOPATHIES, TAUOPATHIES, AND OTHER DISORDERS” (PTC THERAPEUTICS, INC., priority 2018, published 2023):

How the values were obtained:
[1] = system: PD patient fibroblasts (ND29542); assay: Rescue of PD patient fibroblasts from BSO plus iron-induced oxidative stress; assay type: cell-based, human; conditions: BSO (125 μM) plus iron (125 μM); for Max Rescue (@ 500 nM): 500 nM compound, unit assumed; for EC50: Homo sapiens, Fibroblast, concentration at which 50% maximal rescue of cell viability was observed
Experimental: An initial screen was performed to identify the effectiveness of compounds for the amelioration of PD and AD. Test samples and solvent controls were tested for their ability to rescue PD and AD fibroblasts stressed by addition of L-buthionine-(S,R)-sulfoximine (BSO, a specific inhibitor of GSH synthetase) plus iron (e.g. iron citrate), in a similar manner as that described in Jauslin et al., Hum. Mol. Genet. 11(24):3055 (2002), Jauslin et al., FASEB J. 17:1972-4 (2003), and International Patent Application WO 2004/003565. This specific BSO-mediated cell death was prevented or ameliorated by administration of compounds described herein.
The AD experiments were performed as follows. PD experiments were performed in a similar manner; certain specific conditions are noted below in Table 1A.
MEM (a medium enriched in amino acids and vitamins) and Medium 199 (M199) with Earle's Balanced Salts (EBS), without phenol red, were purchased from Invitrogen. Fetal Calf Serum was obtained from Corning. Basic fibroblast growth factor (bFGF) and epidermal growth factor (EGF) were purchased from PeproTech. Penicillin-streptomycin-glutamine mix, L-buthionine (S,R)-sulfoximine, iron citrate, and insulin from bovine pancreas were purchased from Sigma. Calcein AM was purchased from Anaspec. Cell Culture Medium was prepared by combining 450 mL MEM, 50 mL Fetal Calf Serum, 100 U/mL penicillin, and 100 microgram/mL streptomycin. Assay medium was prepared by combining 125 mL M199, 50 mL Fetal Calf Serum, 100 U/mL penicillin, 100 microgram/mL streptomycin, 2 mM glutamine, 10 microgram/mL insulin, 10 ng/mL EGF, and 10 ng/mL bFGF; MEM was added to make the volume up to 500 mL. 10 mM BSO and 10 mM iron citrate solutions were prepared in water with subsequent filter-sterilization and stored at −20° C.
The test samples were supplied in 1.5 mL glass vials or polypropylene vials. The compounds were diluted with DMSO, to result in a 1 mM stock solution. Once dissolved, they were stored at −20° C.
A culture of AD or PD patient-derived fibroblasts was started from a vial with approximately 500,000 cells stored in liquid nitrogen. Cells were propagated in Cell Culture Medium, with subcultivation every third day by trypsinization at a ratio of 1:3. Once confluent, fibroblasts were harvested by trypsinization, resuspended in Assay Medium, and seeded at a final cell density of 2,500 cells/0.1 mL per well of a standard 96-well tissue culture plate. […]
100 microliters of Calcein AM (1 microM) in PBS+Ca+Mg was then added to each well. […] After that time fluorescence (excitation/emission wavelengths of 485 nm and 525 nm, respectively) was read on a Spectramax fluorescence reader. Data were analyzed using standard four-parameter curve fit algorithms (XLFit or Prism) to determine the EC50 concentration for each compound.

[2] = target: T1, recombinant human αSynuclein (Homo sapiens, UniProt P37840); assay: Cell-free αSynuclein aggregation assay (Thioflavin T); assay type: biochemical; conditions: 200 μM αSynuclein, 100 μM compound, t=24 hours, one-way ANOVA with Tukey's test
T1 construct: purchased Proteos, Inc
Experimental: Summary: The compound 2,3,5-trimethyl-6-nonylcyclohexa-2,5-diene-1,4-dione (“C9”), and its C8 (2,3,5-trimethyl-6-octylcyclohexa-2,5-diene-1,4-dione) and C7 (2,3,5-trimethyl-6-heptylcyclohexa-2,5-diene-1,4-dione) analogs were tested for their function as inhibitors of αSynuclein aggregation, as measured by the presence and extent of a lag phase in the kinetics of protein aggregation. Changes in the fluorescence intensity by the aggregate-binding fluorophore, Thioflavin T, were followed to report on the protein aggregation as a function of time.
Experimental Methods: Cell-free αSynuclein aggregation assays were set up with 200 μM of recombinant human αSynuclein (Proteos, Inc.) in the presence of 100 μM of compound (from 10 mM stock solutions in DMSO) or in 1% (v/v) DMSO as vehicle. All solutions were prepared in Dulbecco's phosphate-buffered saline (DPBS) buffer (pH 7.4) with 0.03% (v/v) NaN3 and 5 μM Thioflavin T (ThT), prepared as a master mix before addition of the protein or compounds. A protein master mix was then prepared and separated into 4 tubes (1 per condition). […]
Protein solution+/−compound and background samples were then loaded into wells of an optically transparent 96-well plate with black walls (Corning Costar), which was sealed with a LightCycler® 480 seal (Roche Life Science), incubated at 37° C. for 15 minutes to equilibrate, after which the data collection was started. A Tecan M1000 spectrometer was used to collect data points on ThT fluorescence (ex/em 450/490 nm) every 30 minutes. The plate was agitated by shaking in between fluorescence reads.
Data Analysis and Results: Fluorescence intensity data were collected on all the samples over time. The endpoint fluorescence intensity unit (FIU) value of the mean of vehicle-treated αSyn samples was set to 100%, and all other FIU values were normalized relative to it (see FIG. 1A). The end results were plotted as normalized ThT fluorescence (%) with respect to time.
Normalized ThT fluorescence values (% FIU) at t=24 hours were used to compare samples (see FIG. 1B). […]

inhibition of αSynuclein aggregation (normalized ThT fluorescence vs vehicle) [2]	Compound	Max Rescue (@ 500 nM) [1] [%]	EC50 [1] [nM]
not statistically significant	CCCCCCCCC1=C(C)C(=O)C(C)=C(C)C1=O [Compound C8, 2,3,5-trimethyl-6-octylcyclohexa-2,5-diene-1,4-dione, reference compound]	73	> 500
significant inhibition effect	CCCCCCCCCC1=C(C)C(=O)C(C)=C(C)C1=O [Compound C9, 2,3,5-trimethyl-6-nonylcyclohexa-2,5-diene-1,4-dione]	103	84
